Data published in patent publication US9365604B2, “Oligomer-nucleoside phosphate conjugates” (NEKTAR THERAPEUTICS, priority 2007, dated 2016).
Like-named read-outs stand apart in the source and are kept apart here.

Experiments:
Hop62 = test: Sulforhodamine B (SRB) growth inhibition assay; type: cell-based, Human; conditions: for GI50: SRB assay
Experimental: (§1) In Vitro Screening of PEG-Gemcitabine Monophosphate in Selected Human Cancer Cell Lines
(§2) The aim was to determine the GI50 values for PEG-floxuridine conjugates against a panel of cell lines, and based on previous data from Xenograft studies. […] The test articles were solubilized in dimethylsulfoxide and were tested at four different molar (M) concentrations; 10^−4, 10^−5, 10^−6, M. GI50 (the concentration needed to reduce the growth of treated cells to half that of untreated control cells) was calculated for each condition ([(Ti−Tz)/(C-Tz)]×100=50, where Ti, Tz, and C refer to absorbance values obtained from each tested concentration, time zero, and control treatment, respectively).
as §2, with “The objective” for “The aim”, “the IC50” for “the GI50”, “for PEG-gemcitabine” for “for PEG-floxuridine”, “in dimethyl sulfoxide” for “in dimethylsulfoxide”, “10^−6, 10^−7” for “10^−6,”, “condition ([(Ti−Tz)/(C−Tz)]×100=50,” for “condition ([(Ti−Tz)/(C-Tz)]×100=50,”

COLO205 = test: Sulforhodamine B (SRB) growth inhibition assay; type: cell-based, Human; conditions: for GI50: COLO205, SRB assay
Experimental: as §1, §2
as §2, with “The objective” for “The aim”, “the IC50” for “the GI50”, “for PEG-gemcitabine” for “for PEG-floxuridine”, “in dimethyl sulfoxide” for “in dimethylsulfoxide”, “10^−6, 10^−7” for “10^−6,”, “condition ([(Ti−Tz)/(C−Tz)]×100=50,” for “condition ([(Ti−Tz)/(C-Tz)]×100=50,”

HCT15 = test: Sulforhodamine B (SRB) growth inhibition assay; type: cell-based, Human; conditions: for GI50: SRB assay
Experimental: as §1, §2
as §2, with “The objective” for “The aim”, “the IC50” for “the GI50”, “for PEG-gemcitabine” for “for PEG-floxuridine”, “in dimethyl sulfoxide” for “in dimethylsulfoxide”, “10^−6, 10^−7” for “10^−6,”, “condition ([(Ti−Tz)/(C−Tz)]×100=50,” for “condition ([(Ti−Tz)/(C-Tz)]×100=50,”

HT29 = test: Sulforhodamine B (SRB) growth inhibition assay; type: cell-based, Human; conditions: for GI50: SRB assay
Experimental: as §1, §2
as §2, with “The objective” for “The aim”, “the IC50” for “the GI50”, “for PEG-gemcitabine” for “for PEG-floxuridine”, “in dimethyl sulfoxide” for “in dimethylsulfoxide”, “10^−6, 10^−7” for “10^−6,”, “condition ([(Ti−Tz)/(C−Tz)]×100=50,” for “condition ([(Ti−Tz)/(C-Tz)]×100=50,”

A2780 = test: Sulforhodamine B (SRB) growth inhibition assay; type: cell-based, Human; conditions: for GI50: SRB assay
Experimental: as §1, §2
as §2, with “The objective” for “The aim”, “the IC50” for “the GI50”, “for PEG-gemcitabine” for “for PEG-floxuridine”, “in dimethyl sulfoxide” for “in dimethylsulfoxide”, “10^−6, 10^−7” for “10^−6,”, “condition ([(Ti−Tz)/(C−Tz)]×100=50,” for “condition ([(Ti−Tz)/(C-Tz)]×100=50,”

MCF7 = test: Sulforhodamine B (SRB) growth inhibition assay; type: cell-based, Human; conditions: for GI50: SRB assay
Experimental: as §1, §2
as §2, with “The objective” for “The aim”, “the IC50” for “the GI50”, “for PEG-gemcitabine” for “for PEG-floxuridine”, “in dimethyl sulfoxide” for “in dimethylsulfoxide”, “10^−6, 10^−7” for “10^−6,”, “condition ([(Ti−Tz)/(C−Tz)]×100=50,” for “condition ([(Ti−Tz)/(C-Tz)]×100=50,”

Caco-2 cells = test: Bi-directional permeability in Caco-2 cells
From the text: Bi-Directional Permeability of PEG-Floxuridine Conjugates in Caco-2 and MDCK Cells

HCT-116 = test: In vitro cytotoxicity assay (CellTiter-Glo); type: cell-based
Experimental: (§3) The objective of these studies were to determine the IC50 values for PEG-floxuridine conjugates against floxuridine-resistant cell lines based on data from previous Xenograft studies. The cells were exposed for 72 h, and cell viability assessed by using the CellTiter-Glo assay.
(§4) The objective of these studies was to determine the IC50 values for PEG-gemcitabine conjugates against gemcitabine-resistant cell lines based on data from previous Xenograft studies. The cells were exposed for 72 h, and cell viability assessed by using the CellTiter-Glo assay.

HT-29 = test: In vitro cytotoxicity assay (CellTiter-Glo); type: cell-based
Experimental: as §3, §4

MIA PaCa-2 = test: In vitro cytotoxicity assay (CellTiter-Glo); type: cell-based
Experimental: as §3, §4

DU145 = test: Sulforhodamine B (SRB) growth inhibition assay; type: cell-based, Human; conditions: SRB assay
Experimental: as §2
as §2, with “The objective” for “The aim”, “the IC50” for “the GI50”, “for PEG-gemcitabine” for “for PEG-floxuridine”, “in dimethyl sulfoxide” for “in dimethylsulfoxide”, “10^−6, 10^−7” for “10^−6,”, “condition ([(Ti−Tz)/(C−Tz)]×100=50,” for “condition ([(Ti−Tz)/(C-Tz)]×100=50,”

CCRF-CEM = test: In vitro cytotoxicity assay (CellTiter-Glo); type: cell-based
Experimental: as §4

K-562 = test: In vitro cytotoxicity assay (CellTiter-Glo); type: cell-based
Experimental: as §4

NCI-H23 = test: In vitro cytotoxicity assay (CellTiter-Glo); type: cell-based
Experimental: as §4

DLD-1 = test: In vitro cytotoxicity assay (CellTiter-Glo); type: cell-based
Experimental: as §4

RL = test: In vitro cytotoxicity assay (CellTiter-Glo); type: cell-based
Experimental: as §4

SW-620 = test: In vitro cytotoxicity assay (CellTiter-Glo); type: cell-based
Experimental: as §4

NCI-H460 = test: In vitro cytotoxicity assay (CellTiter-Glo); type: cell-based
Experimental: as §4

HL-60 = test: In vitro cytotoxicity assay (CellTiter-Glo); type: cell-based
Experimental: as §4

NCI-H522 = test: In vitro cytotoxicity assay (CellTiter-Glo); type: cell-based
Experimental: as §4

AS283 = test: In vitro cytotoxicity assay (CellTiter-Glo); type: cell-based
Experimental: as §4

NCI/ADR-RES = test: Sulforhodamine B (SRB) growth inhibition assay; type: cell-based, Human
Experimental: as §1
(§5) The aim was to determine the GI50 values for PEG-floxuridine conjugates against a panel of cell lines, and based on previous data from Xenograft studies. The cells were exposed for 24 h, and cell viability assessed by using the Sulphorhodamine (SRB) assay. The test articles were solubilized in dimethylsulfoxide and were tested at four different molar (M) concentrations; 10^−4, 10^−5, 10^−6, M. GI50 (the concentration needed to reduce the growth of treated cells to half that of untreated control cells) was calculated for each condition ([(Ti−Tz)/(C-Tz)]×100=50, where Ti, Tz, and C refer to absorbance values obtained from each tested concentration, time zero, and control treatment, respectively).
as §5, with “The objective” for “The aim”, “the IC50” for “the GI50”, “for PEG-gemcitabine” for “for PEG-floxuridine”, “in dimethyl sulfoxide” for “in dimethylsulfoxide”, “10^−6, 10^−7” for “10^−6,”, “condition ([(Ti−Tz)/(C−Tz)]×100=50,” for “condition ([(Ti−Tz)/(C-Tz)]×100=50,”

[1] = GI50 of conjugate vs gemcitabine

For COCCOCCOCCOCCOCCOCCOCCOP(=O)(O)OC[C@H]1O[C@@H](n2ccc(N)nc2=O)C(F)(F)[C@@H]1O.Cl [Gemcitabine Mono (mPEG7), 5′-gemcitabine methoxy hepta(ethylene glycol) phosphate hydrochloride], the “ratio vs gem (GI50) Hop62” value (Hop62; [1]) was 1, the GI50 (Hop62; 48 h drug exposure, read-out: GI50 (molar concentration) in Cell Line Hop62) was 2.4 µM and the GI50 (Hop62; cells exposed for 24 h, read-out: GI50 values (μM) Hop62) was 2.4 µM. The GI50 (COLO205; 48 h drug exposure, read-out: GI50 (molar concentration) in Cell Line COLO205) was 0.18 µM, the GI50 (COLO205; cells exposed for 24 h, read-out: GI50 values (μM) COLO205) was 0.18 µM and the “ratio vs gem (GI50) COLO-205” value (COLO205; COLO-205, GI50 of conjugate vs gemcitabine) was 1. For the same compound, the “ratio vs gem (GI50) HCT15” value (HCT15; [1]) was 14, the GI50 (HCT15; 48 h drug exposure, read-out: GI50 (molar concentration) in Cell Line HCT15) was 2.3 µM and the GI50 (HCT15; cells exposed for 24 h, read-out: GI50 values (μM) HCT15) was 2.3 µM. For the same compound, the “ratio vs gem (GI50) HT29” value (HT29; [1]) was 15, the GI50 (HT29; 48 h drug exposure, read-out: GI50 (molar concentration) in Cell Line HT29) was 32 µM and the GI50 (HT29; cells exposed for 24 h, read-out: GI50 values (μM) HT29) was 32 µM. For the same compound, the “ratio vs gem (GI50) A2780” value (A2780; [1]) was 2, the GI50 (A2780; 48 h drug exposure, read-out: GI50 (molar concentration) in Cell Line A2780) was 0.15 µM and the GI50 (A2780; cells exposed for 24 h, read-out: GI50 values (μM) A2780) was 0.15 µM. For the same compound, the “ratio vs gem (GI50) MCF7” value (MCF7; [1]) was 2, the GI50 (MCF7; 48 h drug exposure, read-out: GI50 (molar concentration) in Cell Line MCF7) was 0.16 µM and the GI50 (MCF7; cells exposed for 24 h, read-out: GI50 values (μM) MCF7) was 0.16 µM. For the same compound, the “Papp A -> B” value (Caco-2 cells) was <0.06 10^−6 cm/s, the “Papp B -> A” value (Caco-2 cells) was <0.08 10^−6 cm/s and the Significant efflux (Caco-2 cells) was “No”. For the same compound, the “percent recovery A -> B” value (Caco-2 cells) was 74%, the “percent recovery B -> A” value (Caco-2 cells) was 86% and the “Ratio vs gem (IC50) HCT-116” value (HCT-116) was 2. The IC50 (HCT-116; 72 h exposure, CellTiter-Glo) was 4 nM, the “Ratio vs gem (IC50) HT-29” value (HT-29) was 56 and the IC50 (HT-29; 72 h exposure, CellTiter-Glo) was 6250 nM. For the same compound, the “Ratio vs gem (IC50) MIA PaCa-2” value (MIA PaCa-2) was 3, the IC50 (MIA PaCa-2; 72 h exposure, CellTiter-Glo) was 84 nM and the GI50 (DU145; 48 h drug exposure, read-out: GI50 (molar concentration) in Cell Line DU145) was less than 0.1 µM. For the same compound, the GI50 (DU145; cells exposed for 24 h, read-out: GI50 values (μM) DU145) was less than 0.1 µM, the “Ratio vs gem (IC50) CCRF-CEM” value (CCRF-CEM) was 1 and the IC50 (CCRF-CEM; 72 h exposure, CellTiter-Glo) was 10 nM. For the same compound, the “Ratio vs gem (IC50) K-562” value (K-562) was 2, the IC50 (K-562; 72 h exposure, CellTiter-Glo) was 1150 nM and the “Ratio vs gem (IC50) NCI-H23” value (NCI-H23) was 7. For the same compound, the IC50 (NCI-H23; 72 h exposure, CellTiter-Glo) was 47 nM, the “Ratio vs gem (IC50) DLD-1” value (DLD-1) was 2 and the IC50 (DLD-1; 72 h exposure, CellTiter-Glo) was 36 nM. For the same compound, the “Ratio vs gem (IC50) RL” value (RL) was 1, the IC50 (RL; 72 h exposure, CellTiter-Glo) was 259 nM and the “Ratio vs gem (IC50) SW-620” value (SW-620) was 4. The IC50 (SW-620; 72 h exposure, CellTiter-Glo) was 182 nM, the “Ratio vs gem (IC50) NCI-H460” value (NCI-H460) was 3 and the IC50 (NCI-H460; 72 h exposure, CellTiter-Glo) was 48 nM. The “Ratio vs gem (IC50) HL-60” value (HL-60) was 2, the IC50 (HL-60; 72 h exposure, CellTiter-Glo) was 2.6 nM and the “Ratio vs gem (IC50) NCI-H522” value (NCI-H522) was 6. For the same compound, the IC50 (NCI-H522; 72 h exposure, CellTiter-Glo) was 26 nM, the “Ratio vs gem (IC50) AS283” value (AS283) was 3 and the IC50 (AS283; 72 h exposure, CellTiter-Glo) was 398 nM. It also gave a GI50 (NCI/ADR-RES; 48 h drug exposure, read-out: GI50 (molar concentration) in Cell Line NCI/ADR-RES) of 2 µM and a GI50 (NCI/ADR-RES; cells exposed for 24 h, read-out: GI50 values (μM) NCI/ADR-RES) of 2 µM.
